{"source": "BigSolDB 2.1", "data": [{"smiles": "CN1C(C(=O)Nc2ccccn2)=C(O)c2sc(Cl)cc2S1(=O)=O", "values": [{"measurement": "solubility (mole fraction)", "setting": "in PEG-400, 298.15 K", "value": 0.00861}, {"measurement": "solubility (mole fraction)", "setting": "in PEG-400, 303.15 K", "value": 0.0099}, {"measurement": "solubility (mole fraction)", "setting": "in PEG-400, 308.15 K", "value": 0.0112}, {"measurement": "solubility (mole fraction)", "setting": "in PEG-400, 313.15 K", "value": 0.013}, {"measurement": "solubility (mole fraction)", "setting": "in PEG-400, 323.15 K", "value": 0.0171}, {"measurement": "solubility (mole fraction)", "setting": "in water, 298.15 K", "value": "2.9e-06"}, {"measurement": "solubility (mole fraction)", "setting": "in water, 303.15 K", "value": "4.11e-06"}, {"measurement": "solubility (mole fraction)", "setting": "in water, 308.15 K", "value": "5.62e-06"}, {"measurement": "solubility (mole fraction)", "setting": "in water, 313.15 K", "value": "7.41e-06"}, {"measurement": "solubility (mole fraction)", "setting": "in water, 323.15 K", "value": "1.2e-05"}]}]}
